Columns and labels:
[1] = target: Poly [ADP-ribose] polymerase 1 (Homo sapiens, UniProt P09874); test: Inhibition of human recombinant Poly (ADP-ribose) polymerase 1
[2] = Effective concentration was determined from in vitro cellular peroxide toxicity assay; assay type: functional

Sequence of Poly [ADP-ribose] polymerase 1 (P09874 whole entry): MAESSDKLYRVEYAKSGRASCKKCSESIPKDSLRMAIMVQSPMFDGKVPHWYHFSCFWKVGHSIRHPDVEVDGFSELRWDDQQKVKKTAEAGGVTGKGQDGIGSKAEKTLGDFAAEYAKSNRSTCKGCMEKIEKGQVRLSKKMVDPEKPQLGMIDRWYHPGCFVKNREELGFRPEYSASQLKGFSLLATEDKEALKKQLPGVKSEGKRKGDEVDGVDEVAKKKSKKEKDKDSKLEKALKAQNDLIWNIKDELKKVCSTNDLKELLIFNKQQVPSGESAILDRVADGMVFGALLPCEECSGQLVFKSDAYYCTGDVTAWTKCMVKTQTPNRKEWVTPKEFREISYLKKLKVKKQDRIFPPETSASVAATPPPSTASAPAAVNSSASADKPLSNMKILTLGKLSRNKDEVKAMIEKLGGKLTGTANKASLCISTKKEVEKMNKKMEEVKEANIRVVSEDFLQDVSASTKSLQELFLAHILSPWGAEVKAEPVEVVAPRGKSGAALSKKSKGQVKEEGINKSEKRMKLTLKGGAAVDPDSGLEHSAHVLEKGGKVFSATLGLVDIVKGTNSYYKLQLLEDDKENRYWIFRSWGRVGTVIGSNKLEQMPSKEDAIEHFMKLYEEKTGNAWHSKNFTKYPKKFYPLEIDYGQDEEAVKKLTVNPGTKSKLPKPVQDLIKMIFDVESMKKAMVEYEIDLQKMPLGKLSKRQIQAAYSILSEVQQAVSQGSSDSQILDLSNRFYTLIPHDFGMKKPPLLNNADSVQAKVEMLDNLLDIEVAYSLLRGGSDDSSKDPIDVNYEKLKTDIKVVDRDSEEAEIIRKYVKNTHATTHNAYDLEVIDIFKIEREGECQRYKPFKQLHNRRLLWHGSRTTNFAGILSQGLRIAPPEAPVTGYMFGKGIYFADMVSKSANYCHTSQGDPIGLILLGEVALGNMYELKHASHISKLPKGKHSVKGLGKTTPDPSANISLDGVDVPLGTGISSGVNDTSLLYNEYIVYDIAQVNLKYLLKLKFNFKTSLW

For `O=C(CCN1CCCCC1)N1CCc2c(nc(O)c3ccccc23)C1`, the IC50 [1] was 240 nM.
`N[C@@H](CCC(=O)N1CCc2nc(O)c3ccccc3c2C1)C(=O)O` showed an EC50 [2] of 30000 nM and an IC50 [1] of 89 nM.
With `O=C([C@@H]1CCCN1)N1CCc2c(nc(O)c3ccccc23)C1` the EC50 [2] was 100 nM and the IC50 [1] was 31 nM.
In the case of `O=C(CN1CCN(C2CCCC2)CC1)N1CCc2c(nc(O)c3ccccc23)C1`, the EC50 [2] is reported as 690 nM and the IC50 [1] is reported as 116 nM.
In the case of `O=c1[nH]c2c(c3ccccc13)CCN(S(=O)(=O)CCN1CCCCC1)C2`, the EC50 [2] is reported as 2790 nM and the IC50 [1] is reported as 376 nM.
For `O=C(CCN1CCC(N2CCCC2)CC1)N1CCc2c(nc(O)c3ccccc23)C1`, the IC50 [1] was 243 nM.
`Oc1nc2c(c3ccc(F)cc13)CNCC2` showed an EC50 [2] of 40 nM and an IC50 [1] of 20 nM.
`O=c1[nH]c2c(c3ccccc13)CN(S(=O)(=O)CCN1CCC(N3CCCC3)CC1)CC2` showed an IC50 [1] of 357 nM.
Molecule `Oc1nc2c(c3ccccc13)CCNC2` has an EC50 [2] of 45 nM and an IC50 [1] of 30 nM.
`O=S(=O)(CCN1CCC(N2CCCC2)CC1)N1CCc2c(nc(O)c3ccccc23)C1` gave an EC50 [2] of 1780 nM and an IC50 [1] of 349 nM.
`Oc1nc2c(c3ccccc13)CCCC2` gave an IC50 [1] of 167 nM.
Work on `O=C(CCN1CCCCC1)N1CCc2[nH]c(=O)c3cc(F)ccc3c2C1` yielded an EC50 [2] of 30 nM and an IC50 [1] of 25 nM.
For `O=C(CN1CCCCC1)N1CCc2nc(O)c3ccccc3c2C1`, the EC50 [2] was 60 nM.
`O=C(CCN1CCC(N2CCCC2)CC1)N1CCc2nc(O)c3cc(F)ccc3c2C1` gave an EC50 [2] of 610 nM and an IC50 [1] of 32 nM.
With `O=C(CCN1CCCCC1)N1CCc2nc(O)c3ccccc3c2C1` the EC50 [2] was 58 nM.
Molecule `O=C(CN1CCCCC1)N1CCc2c(nc(O)c3ccccc23)C1` has an EC50 [2] of 260 nM.
With `Oc1nc2c(c3ccccc13)CNCC2` the EC50 [2] was 40 nM.
In the case of `O=C(CN1CCC(N2CCCC2)CC1)N1CCc2nc(O)c3ccccc3c2C1`, the EC50 [2] is reported as 850 nM and the IC50 [1] is reported as 185 nM.
